Laboratory results published in patent publication US20150094328A1, “4-Azaindole Derivatives” (Eisai R&D Management Co., Ltd., priority 2013, published 2015).

target: T1, mAChR M1 (UniProt P11229); test: In vitro cellular calcium flux assay, positive allosteric modulator mode, mAChR M1; format: cell-based, human; details: PAM mode with EC20 carbachol, BHK cells expressing mAChR M1, Examples 76-80 and 82-89 tested in slightly modified procedure
T1 sequence (P11229 1-460): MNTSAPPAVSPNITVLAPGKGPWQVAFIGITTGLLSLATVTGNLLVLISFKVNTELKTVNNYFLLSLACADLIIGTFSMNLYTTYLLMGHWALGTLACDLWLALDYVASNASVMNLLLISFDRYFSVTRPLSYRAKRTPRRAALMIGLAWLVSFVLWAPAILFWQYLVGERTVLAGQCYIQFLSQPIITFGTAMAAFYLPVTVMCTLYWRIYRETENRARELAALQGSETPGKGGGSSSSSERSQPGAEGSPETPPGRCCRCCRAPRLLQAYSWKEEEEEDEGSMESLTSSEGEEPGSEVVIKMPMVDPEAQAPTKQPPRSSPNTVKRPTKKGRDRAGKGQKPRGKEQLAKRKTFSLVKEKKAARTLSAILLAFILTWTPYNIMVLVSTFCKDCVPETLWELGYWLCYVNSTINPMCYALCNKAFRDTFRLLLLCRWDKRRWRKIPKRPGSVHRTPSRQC
Description: Baby hamster kidney cells stably expressing human or rat mAChR M1 to M5 were utilised for primary and selectivity profiling activities. mAChR M2 and M4 cell lines also stably expressed the chimeric Gαqi5 G-protein.
Human mAChR M1, M3, M5 and rat M1 cells were grown in low glucose Dulbecco's Modified Eagle's Medium (DMEM) medium plus heat inactivated 10% fetal bovine serum (HI FBS) and 500 μg/ml hygromycin B^1. Human mAChR M2 and M4 cells were maintained as above with^2 the addition of 500 μg/ml G418 to the media. Cells were maintained in culture at 37° C./5% CO2 and passaged twice weekly by treatment with 0.05% Trypsin/EDTA detachment solution, centrifugation (200 g, 5 min) and re-suspension in fresh media. Following cell expansion, cells were cryopreserved at −80° C. by treatment with 0.05% Trypsin/EDTA detachment solution, centrifugation (200 g, 5 min) and re-suspension of the pellet in freezing media (90% HI FBS/10% DMSO^3) at 15E6 cells/ml^4.
Prior to assaying, cells were prepared by thawing at 37° C. in a water bath, centrifugation (200 g, 5 min) and re-suspension of the pellet in fresh media. 15000 cells per well were seeded in black, clear bottomed 384-well Greiner Bio-One plates in plating medium (DMEM/10% HI FBS) and incubated overnight at 37C/5% CO2.
On the day of the assay, media was removed from each well and replaced with 500 assay buffer (HBSS with 20 mM HEPES and 2.5 mM Probenecid) containing the calcium indicator, Calcium 4 (Molecular Devices). Cells were then incubated at 37° C./5% CO2 for 30 min and at room temperature.
Compound preparation was carried out by generation of 11-point, 1 in 3 serial dilution concentration response curves in 100% DMSO. Compound was then diluted 1 in 65^6 with assay buffer (HBSS with 20 mM HEPES and 2.5 mM Probenecid) prior to the addition of 10 ul^7 to the cells using a Tetra fluorometric imaging plate reader (Molecular Devices)^8. Compound driven increases in intracellular calcium flux was measured as an increase in fluorescence (494Ex, 516Em)^9.
Following agonist data acquisition, cells were then incubated for a further 30 min at room temperature before either an EC20 concentration (to measure positive allosteric modulator activity) or an EC80 concentration (to measure antagonism) of carbachol was added using a fluorometric imaging plate reader. Positive allosteric modulator pEC50 values and antagonist pIC50 values for each compound were then determined. […] Data analysis was carried out using a 4 parameter logistic nonlinear regression model with the XLFIT (IDBS) excel add-in^10.
^1-10Examples 76-80 and 82-89 were tested in a slightly modified procedure. The points of modification and the alternate reagents, concentrations or equipment employed in these examples were: ^1200 μg/ml hygromycin B; ^2G418 not added; ^3CELLBANKER 1; ^410E6; ^540 μl; ^61 in 99; ^720 μl; ^8FDSS6000 (Hamamatsu Photonics); ^9(480Ex, 540Em); 10Spotfire (TIBCO).

Row | SMILES | pEC50 for positive allosteric modulation
1 | O=C(N[C@H]1CCCC[C@@H]1CO)c1cn(Cc2ccc(F)cc2)c2cccnc12 (racemic) [Example 18, 1-(4-Fluorobenzyl)-N-(trans-2-(hydroxymethyl)cyclohexyl)-1H-pyrrolo[3,2-b]pyridine-3-carboxamide] | 6.1
2 | C[C@H]1COCC[C@@H]1NC(=O)c1cn(Cc2ccc(F)cc2)c2cccnc12 (racemic) [Example 19, 1-(4-Fluorobenzyl)-N-(trans-3-methyltetrahydro-2H-pyran-4-yl)-1H-pyrrolo[3,2-b]pyridine-3-carboxamide] | 6.0
3 | C[C@H]1CCCC[C@@H]1NC(=O)c1cn(Cc2ccc(F)cc2)c2cccnc12 (racemic) [Example 20, 1-(4-Fluorobenzyl)-N-(trans-2-methylcyclohexyl)-1H-pyrrolo[3,2-b]pyridine-3-carboxamide] | 6.1
4 | O=C(N[C@H]1CCC[C@@H]1O)c1cn(Cc2ccc(F)cc2)c2cccnc12 (racemic) [Example 27, 1-(4-Fluorobenzyl)-N-(trans-2-hydroxycyclopentyl)-1H-pyrrolo[3,2-b]pyridine-3-carboxamide] | 6.1
5 | O=C(N[C@H]1CCCCC[C@@H]1O)c1cn(Cc2ccc(F)cc2)c2cccnc12 (racemic) [Example 28, 1-(4-Fluorobenzyl)-N-(trans-2-hydroxycycloheptyl)-1H-pyrrolo[3,2-b]pyridine-3-carboxamide] | 6.6
6 | O=C(N[C@@H]1CCCC[C@H]1O)c1cn(Cc2ccc(-c3ccc(F)cc3)cc2)c2cccnc12 (racemic) [Example 46, 1-((4′-Fluoro-[1,1′-biphenyl]-4-yl)methyl)-N-(trans-2-hydroxycyclohexyl)-1H-pyrrolo[3,2-b]pyridine-3-carboxamide] | 6.5
7 | O=C(NC1CCCOC1)c1cn(Cc2ccc(-n3cccn3)cc2)c2cccnc12 (racemic) [Example 49, 1-(4-(1H-Pyrazol-1-yl)benzyl)-N-(tetrahydro-2H-pyran-3-yl)-1H-pyrrolo[3,2-b]pyridine-3-carboxamide] | 5.6
8 | O=C(N[C@@H]1CCC(F)(F)C[C@H]1O)c1cn(Cc2ccc(F)cc2)c2cccnc12 (single isomer, unassigned) [Example 35, N-(trans-4,4-Difluoro-2-hydroxycyclohexyl)-1-(4-fluorobenzyl)-1H-pyrrolo[3,2-b]pyridine-3-carboxamide] | 6.1
9 | O=C(N[C@H]1CCC(F)(F)C[C@H]1O)c1cn(Cc2ccc(F)cc2)c2cccnc12 (single isomer, unassigned) [Example 36, N-(cis-4,4-Difluoro-2-hydroxycyclohexyl)-1-(4-fluorobenzyl)-1H-pyrrolo[3,2-b]pyridine-3-carboxamide] | 6.3
10 | Cc1ccnc2c(C(=O)N[C@H]3CCOC[C@@H]3O)cn(Cc3ccc(F)cc3)c12 (single isomer, unassigned) [Example 82, 1-(4-Fluorobenzyl)-N-(trans-3-hydroxytetrahydro-2H-pyran-4-yl)-7-methyl-1H-pyrrolo[3,2-b]pyridine-3-carboxamide] | 7.8
11 | COc1ccc(Cn2cc(C(=O)N[C@H]3CCOC[C@@H]3O)c3nccc(C)c32)cc1 (single isomer, unassigned) [Example 83, 1-(4-Methoxybenzyl)-N-(trans-3-hydroxytetrahydro-2H-pyran-4-yl)-7-methyl-1H-pyrrolo[3,2-b]pyridine-3-carboxamide] | 8.0
12 | COc1ccc(Cn2cc(C(=O)N[C@H]3CCOC[C@@H]3O)c3nccc(C)c32)cc1F (single isomer, unassigned) [Example 84, 1-(3-Fluoro-4-methoxybenzyl)-N-(trans-3-hydroxytetrahydro-2H-pyran-4-yl)-7-methyl-1H-pyrrolo[3,2-b]pyridine-3-carboxamide] | 7.9
13 | COc1cc(Cn2cc(C(=O)N[C@H]3CCOC[C@@H]3O)c3nccc(C)c32)ccn1 (single isomer, unassigned) [Example 85, N-(trans-3-Hydroxytetrahydro-2H-pyran-4-yl)-1-((2-methoxypyridin-4-yl)methyl)-7-methyl-1H-pyrrolo[3,2-b]pyridine-3-carboxamide] | 7.3
14 | O=C(N[C@@H]1CCOC[C@H]1O)c1cn(Cc2cccc(F)c2)c2c(Cl)ccnc12 (single isomer, unassigned) [Example 86, 7-Chloro-1-(3-fluorobenzyl)-N-(trans-3-hydroxytetrahydro-2H-pyran-4-yl)-1H-pyrrolo[3,2-b]pyridine-3-carboxamide] | 7.6
15 | COc1ccc(Cn2cc(C(=O)N[C@H]3CCOC[C@@H]3O)c3nccc(Cl)c32)cc1 (single isomer, unassigned) [Example 87, 7-Chloro-1-(4-methoxybenzyl)-N-(trans-3-hydroxytetrahydro-2H-pyran-4-yl)-1H-pyrrolo[3,2-b]pyridine-3-carboxamide] | 7.9
16 | N#Cc1ccnc2c(C(=O)N[C@H]3CCCC[C@@H]3O)cn(Cc3ccc(C(F)(F)F)cc3)c12 [Example 33, 7-Cyano-N-((1S,2S)-2-hydroxycyclohexyl)-1-(4-(trifluoromethyl)benzyl)-1H-pyrrolo[3,2-b]pyridine-3-carboxamide] | 7.0
17 | N#Cc1ccc2c(n1)c(C(=O)N[C@H]1CCCC[C@@H]1O)cn2Cc1ccc(-n2cccn2)cc1 [Example 41, 1-(4-(1H-Pyrazol-1-yl)benzyl)-5-cyano-N-((1S,2S)-2-hydroxycyclohexyl)-1H-pyrrolo[3,2-b]pyridine-3-carboxamide] | 6.5
18 | Cn1cnc(-c2ccc(Cn3cc(C(=O)N[C@H]4CCCC[C@@H]4O)c4ncccc43)cc2)c1 [Example 43, N-((1S,2S)-2-Hydroxycyclohexyl)-1-(4-(1-methyl-1H-imidazol-4-yl)benzyl)-1H-pyrrolo[3,2-b]pyridine-3-carboxamide] | 8.0
19 | N#Cc1ccc(Cn2cc(C(=O)N[C@H]3CCCC[C@@H]3O)c3nccc(Cl)c32)cn1 [Example 70, 7-Chloro-1-((6-cyanopyridin-3-yl)methyl)-N-((1S,2S)-2-hydroxycyclohexyl)-1H-pyrrolo[3,2-b]pyridine-3-carboxamide] | 7.0
20 | O=C(N[C@H]1CCCC[C@@H]1O)c1cn(Cc2ccc(F)c(F)c2)c2cccnc12 [Example 94, 1-(3,4-difluorobenzyl)-N-((1S,2S)-2-hydroxycyclohexyl)-1H-pyrrolo[3,2-b]pyridine-3-carboxamide] | 6.6
